Data reported in US20200206198A1, “CFTR CHANNEL ACTIVATOR FOR USE IN THE TREATMENT AND/OR PREVENTION OF GLUTEN SENSITIVITY CONDITIONS” (priority 2017, published 2020).

What was measured:
[1] = test system: non-obese diabetic (NOD) female mice; assay: NOD mice orally challenged with gliadin; assay type: in vivo, mouse
Text: (§1) In the second model of gluten sensitivity, the Applicant resorted to non-obese diabetic (NOD) female mice, which spontaneously develop autoimmune type-1 diabetes (Maurano, F., et al. 2005).
(§2) BALB/c mice (background BALB/cAnNCrl) were purchased from Charles River (Varese, Italy). Three generation gluten-free diet (Mucedola srl, Milan), male and female, were challenged with gliadin for 4 weeks. […]
(§3) Chambers for mounting either transwell cell cultures or mouse tissue biopsies were obtained from Physiologic Instruments (model P2300, San Diego, Calif., USA). […] Shortcircuit current (expressed as Isc (μA/cm2)) and resistance were acquired or calculated using the VCC600 transepithelial clamp from Physiologic Instruments and the Acquire & Analyze 2.3 software for data acquisition (Physiologic Instruments), as previously described Tosco A, et al. 2016; Romani, L. et al. 2017).
(§4) ELISA analysis was performed on tissue samples using standard ELISA kits (R&D Systems) for IL-15, IL-17A, INFγ IL21, IL10, TGF-β. […] Samples were read in triplicate at 450 nm in a Microplate Reader (BioRad, Milan, Italy) using Microplate Manager 5.2.1 software. Values were normalized to protein concentration evaluated by Bradford analysis. […]

[2] = test system: NOD mice transgenic for HLA DQ8 (NOD-DQ8); assay: NOD-DQ8 mice orally challenged with gliadin; assay type: in vivo, mouse
Text: as §1, §2, §3, §4

CC(C)(C)c1cc(C(C)(C)C)c(NC(=O)c2c[nH]c3ccccc3c2=O)cc1O [VX-770, N-(2,4-di-tert-butyl-5-hydroxyphenyl)-4-oxo-1,4-dihydroquinoline-3-carboxamide]
immunoprotective effects (IL-15, IL-17A, IFN-γ protein) ([1]; NOD mice challenged with gliadin after diabetes onset): immunoprotective effects of VX-770 were confirmed | effect on gliadin-induced reduction in CFTR function ([1]; NOD mice, VX-770 i.p.): inhibitable | effect on gliadin-induced increase of IFN-γ [2]: counteracted the gliadin-induced increase of IFN-γ
